Data: patent US12037583B2, “Compositions and methods for immunooncology” (Novartis AG, priority 2015, dated 2024)

Assays:
[1] = system: CIITA; test: NGS editing and frameshift edit of CIITA by dgRNA in HEK293 cells expressing Cas9; type: cell-based, human; conditions: HEK293 cells stably expressing Cas9, dgRNA to CIITA; for Avg. % Edit: N = 3; for Avg. % FS: frameshift edit
Method: Editing of CIITA with dgRNAs targeted to the CIITA gene were assayed in HEK293 cells engineered to express Cas9, as described above in Example 1.

[2] = system: CIITA; test: NGS editing and frameshift edit of CIITA in CD3+ primary human T cells (RNP); type: cell-based; conditions: dgRNA targeting CIITA delivered as RNP to CD3+ T cells
From the text: The frequency of insertions or deletions is indicated (% indels) and the percentage of these edits that result in frameshifting of the coding sequence is shown (% frameshift edits).
PBMC were isolated from human blood (Hemacare) by using centrifugation method using Ficoll. […] These cells were aliquoted and frozen. These frozen cell aliquots were then thawed and activated using CD3/CD28 beads (DynaBeads Invitrogen Cat #111.41D) at bead to cell ratio of 3:1. On day 2 or day 3 after bead activation, 200,000 cells were removed from culture for electroporation. […] Next 1 μL of 100 μM crRNA was added, mixed and incubated for 10 min at 37° C. If more than one RNP was added during the electroporation step, each RNP with a crRNA targeting a different gene was assembled separately using the above method, then combined together with the addition of Cas9 buffer in order to obtain different RNP final concentrations for different conditions. For “triple editing”, i.e. simultaneous addition of 3 RNPs targeting different genes, details of RNP quantities are provided in the figures. The assembled RNPs were then mixed with 200,000 cells in 10 ul of T Buffer (neon transfection system 10 ul Kit). Electroporation was performed by Neon electroporator using Neon® Transfection System 10 μL Kit (MPK1096) at 1600V, 10 ms, 3 pulses. […] To evaluate the editing frequency and sequence changes resulting from gene editing in the above prepared T cells, genomic DNA was isolated and subjected to sequencing. Briefly, frozen cell pellets were thawed and processed using DNeasy Blood & Tissue Kit (Qiagen, 69506) to isolate genomic DNA. Eluted DNA was used to run PCR using Titanium Taq PCR kit (Clontech Laboratories, 639211) and primers in Table 27.
PCR product was purified using QIAquick PCR Purification Kit (Qiagen, 28104). […] PCR amplicons were subjected to standard Nextera NGS library prep (Illumina) and sequenced with paired-end reads on an Illumina MiSeq sequencer.

[3] = system: TRAC; test: Editing of TRAC by dgRNAs in HEK cells stably expressing Cas9 (NGS); type: cell-based, human; conditions: dgRNA delivered to HEK cells stably expressing Cas9, target TRAC, mean of at least 3 experiments
From the text: (§1) FIG. 12: Mean (n≥3) editing of CRISPR systems with dgRNAs as indicated to TRAC in HEK cells (stably expressing Cas9) or primary human CD3+ T cells (delivery of dgRNA:Cas9 RNP by electroporation).

[4] = system: TRAC locus; test: Genomic editing of the TRAC locus in primary human CD3+ T cells by RNP electroporation (NGS: % indels, % frameshift edits, indel pattern); type: cell-based; conditions: dgRNA/Cas9 RNP by electroporation, target TRAC; for mean FS edit (%): frameshift edits in primary human CD3+ T cells; for mean total % edit: primary human CD3+ T cells, mean of at least 3 experiments;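 on all read-outs here: total edit is the insertion or deletion frequency at TRAC, and the frameshift value is the share of those indels that shift the coding frame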
From the text: as §1
FIG. 33C: Genomic editing of the TRAC locus resulting from human primary T cell electroporation with RNP containing the indicated gRNA targeting the TRAC locus is shown. The frequency of insertions or deletions is indicated (% indels) and the percentage of these edits that result in frameshifting of the coding sequence is shown (% frameshift edits).
Data for each experiment are the average from triplicate PCR products.

Substance	Avg. % Edit [1]	Avg. % FS [1]	Editing % [2]	Frameshift Edit % [2]	mean % edit [3]	mean FS edit (%) [4]	mean total % edit [4]
CR002976 (guide AUAGAAGUGGUAGAGGCACA; chemistry not given here; listed as Homo sapiens)	45.36%	37.66%	4.0%	3.6%	–	–	–
CR002978 (guide UCUGGUCAUAGAAGUGGUAG; chemistry not given here; listed as Homo sapiens)	38.34%	34.11%	4.7%	2.7%	–	–	–
CR002980 (guide GGUCCAUCUGGUCAUAGAAG; chemistry not given here; listed as Homo sapiens)	50.30%	42.41%	6.1%	3.6%	–	–	–
CR002992 (guide UGGAAGGUGAUGAAGAGACC; chemistry not given here; listed as Homo sapiens)	46.54%	31.23%	16.0%	11.6%	–	–	–
CR002993: dgRNA targeting domain to CIITA (guide GGAAGGUGAUGAAGAGACCA; chemistry not given here; listed as Homo sapiens)	60.16%	48.86%	33.8%	27.2%	–	–	–
CR002994 (guide AGGUGAUGAAGAGACCAGGG; chemistry not given here; listed as Homo sapiens)	42.35%	31.32%	22.0%	18.1%	–	–	–
CR002995 (guide GAUAUUGGCAUAAGCCUCCC; chemistry not given here; listed as Homo sapiens)	52.74%	43.64%	3.1%	2.5%	–	–	–
CR003001 (guide UUCCAGGACUCCCAGCUGGA; chemistry not given here; listed as Homo sapiens)	47.64%	43.30%	36.3%	32.0%	–	–	–
CR003007: dgRNA targeting domain to CIITA (guide AUAGGACCAGAUGAAGUGAU; chemistry not given here; listed as Homo sapiens)	43.64%	32.22%	31.6%	28.8%	–	–	–
CR003013 (guide UGCCGGAAGCUCCUCUGGGA; chemistry not given here; listed as Homo sapiens)	37.75%	29.94%	11.5%	9.0%	–	–	–
CUGGGGAAGAAGGUGUCUUC (chemistry not given here; listed as Homo sapiens) [CR000973]	–	–	–	–	39.7%	12.4%	16.2%
CUUCAAGAGCAACAGUGCUG (chemistry not given here; listed as Homo sapiens) [CR000969]	–	–	–	–	34.0%	20.9%	24.8%
GAGAAUCAAAAUCGGUGAAU (chemistry not given here; listed as Homo sapiens) [CR000964]	–	–	–	–	51.2%	23.5%	27.0%
GAGGCUUCUCACCCUGCAGC (chemistry not given here; listed as Homo sapiens) [CR000922]	–	–	–	–	37.8%	5.0%	6.4%
GAGUUCCCUCUGUUUGGAGA (chemistry not given here; listed as Homo sapiens) [CR001004]	–	–	–	–	47.2%	6.4%	6.7%
GCAAUGCAGAGGAAGGAGCG (chemistry not given here; listed as Homo sapiens) [CR000998]	–	–	–	–	4.3%	2.2%	2.4%
GCAGCAGGGACCUGUGAGCA (chemistry not given here; listed as Homo sapiens) [CR000926]	–	–	–	–	73.0%	19.9%	22.5%
GCAUUGCCGGGGGGGCACAG (chemistry not given here; listed as Homo sapiens) [CR001014]	–	–	–	–	52.7%	24.3%	27.3%
GCUGUAUGUGUGAGUUGGUG (chemistry not given here; listed as Homo sapiens) [CR000948]	–	–	–	–	84.5%	18.4%	20.3%
